Each compound was assayed against ABL1 (64-515) (Homo sapiens (Human), UniProt P00519) (assay: Radio ABL1 (64-515) assay (radiometric filter-binding)). Details: not given.
Assay type: biochemical

Chain of ABL1 (64-515) (P00519 64-515): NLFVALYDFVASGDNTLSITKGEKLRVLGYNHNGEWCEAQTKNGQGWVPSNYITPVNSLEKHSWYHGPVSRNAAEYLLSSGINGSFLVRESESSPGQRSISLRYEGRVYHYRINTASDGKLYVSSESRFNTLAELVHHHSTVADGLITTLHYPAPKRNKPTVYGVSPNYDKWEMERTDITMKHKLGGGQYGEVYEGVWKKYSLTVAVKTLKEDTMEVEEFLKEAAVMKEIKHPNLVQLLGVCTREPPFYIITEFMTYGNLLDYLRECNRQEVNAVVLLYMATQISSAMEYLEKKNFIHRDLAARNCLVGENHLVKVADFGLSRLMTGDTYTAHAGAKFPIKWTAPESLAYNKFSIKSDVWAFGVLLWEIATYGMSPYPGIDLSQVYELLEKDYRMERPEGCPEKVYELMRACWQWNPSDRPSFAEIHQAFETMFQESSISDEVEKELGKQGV

IC50 | Compound
6.5 nM | O=C(Nc1ccc(OC(F)(F)F)cc1)c1cccc(-c2cnc(OCCO)nc2)c1 [Example 2, 3-(2-(2-Hydroxyethoxy)pyrimidin-5-yl)-N-(4-(trifluoromethoxy)phenyl)benzamide]
3.9 nM | N#Cc1cncc(-c2cccc(C(=O)Nc3ccc(OC(F)(F)F)cc3)c2)c1 [Example 3, 3-(5-Cyanopyridin-3-yl)-N-(4-(trifluoromethoxy)phenyl)benzamide]
7 nM | Nc1cnc(-c2cccc(C(=O)Nc3ccc(OC(F)(F)F)cc3)c2)cn1 [Example 4, 3-(5-Aminopyrazin-2-yl)-N-(4-(trifluoromethoxy)phenyl)benzamide]
3.1 nM | O=C(Nc1ccc(OC(F)(F)F)cc1)c1cccc(-c2cnccn2)c1 [Example 5, 3-(Pyrazin-2-yl)-N-(4-(trifluoromethoxy)phenyl)benzamide]
< 3 nM | O=C(Nc1ccc(OC(F)(F)F)cc1)c1cccc(-c2ccc(CN3CCCC3)s2)c1 [Example 7, 3-(5-(Pyrrolidin-1-ylmethyl)thiophen-2-yl)-N-(4-(trifluoromethoxy)phenyl)benzamide]
1.9 nM | O=C(Nc1ccc(OC(F)(F)F)cc1)c1cccc(-n2ccnc2)c1 [Example 8, 3-(1H-Imidazol-1-yl)-N-(4-(trifluoromethoxy)phenyl)benzamide]
3.2 nM | O=C(Nc1ccc(OC(F)(F)F)cc1)c1ccc(F)c(-c2cncnc2)c1 [Example 18, 4-fluoro-3-(pyrimidin-5-yl)-N-(4-(trifluoromethoxy)phenyl)benzamide]
12 nM | COc1ncc(-c2cc(C(=O)Nc3ccc(OC(F)(F)F)cc3)ccc2F)cn1 [Example 19, 4-fluoro-3-(2-methoxypyrimidin-5-yl)-N-(4-(trifluoromethoxy)phenyl)benzamide]
13 nM | O=C(Nc1ccc(OC(F)(F)F)cc1)c1ccc(F)c(-c2cccnc2)c1 [Example 20, 4-fluoro-3-(pyridin-3-yl)-N-(4-(trifluoromethoxy)phenyl)benzamide]
35 nM | Cn1cc(-c2cc(C(=O)Nc3ccc(OC(F)(F)F)cc3)ccc2F)cn1 [Example 22, 4-fluoro-3-(1-methyl-1H-pyrazol-4-yl)-N-(4-(trifluoromethoxy)phenyl)benzamide]
< 3 nM | O=C(Nc1ccc(OC(F)(F)F)cc1)c1ccc(Cl)c(-c2cncnc2)c1 [Example 24, 4-chloro-3-(pyrimidin-5-yl)-N-(4-(trifluoromethoxy)phenyl)benzamide]
8.1 nM | COc1ncc(-c2cc(C(=O)Nc3ccc(OC(F)(F)F)cc3)ccc2Cl)cn1 [Example 25, 4-chloro-3-(2-methoxypyrimidin-5-yl)-N-(4-(trifluoromethoxy)phenyl)benzamide]
13 nM | O=C(Nc1ccc(OC(F)(F)F)cc1)c1ccc(Cl)c(-c2cccnc2)c1 [Example 26, 4-chloro-3-(pyridin-3-yl)-N-(4-(trifluoromethoxy)phenyl)benzamide]
31 nM | O=C(Nc1ccc(OC(F)(F)F)cc1)c1ccc(Cl)c(-c2ccncc2)c1 [Example 27, 4-chloro-3-(pyridin-4-yl)-N-(4-(trifluoromethoxy)phenyl)benzamide]
3.2 nM | COc1ccc(C(=O)Nc2ccc(OC(F)(F)F)cc2)cc1-c1cccnc1 [Example 31, 4-methoxy-3-(pyridin-3-yl)-N-(4-(trifluoromethoxy)phenyl)benzamide]
3.4 nM | COc1ccc(C(=O)Nc2ccc(OC(F)(F)F)cc2)cc1-c1ccc(F)nc1 [Example 32, 3-(6-fluoropyridin-3-yl)-4-methoxy-N-(4-(trifluoromethoxy)phenyl)benzamide]
8.7 nM | COc1ccc(C(=O)Nc2ccc(OC(F)(F)F)cc2)cc1-c1ccncc1 [Example 33, 4-methoxy-3-(pyridin-4-yl)-N-(4-(trifluoromethoxy)phenyl)benzamide]
9.9 nM | COc1ccc(C(=O)Nc2ccc(OC(F)(F)F)cc2)cc1-c1ccc2c(c1)OCO2 [Example 35, 3-(Benzo[d][1,3]dioxol-5-yl)-4-methoxy-N-(4-(trifluoromethoxy)phenyl)benzamide]
3.4 nM | COc1ccc(C(=O)Nc2ccc(OC(F)(F)F)cc2)cc1-c1ccc(C(C)=O)s1 [Example 36, 3-(5-Acetylthiophen-2-yl)-4-methoxy-N-(4-(trifluoromethoxy)phenyl)benzamide]
< 3 nM | O=C(Nc1ccc(OC(F)(F)F)cc1)c1ccc(OCCO)c(-c2cncnc2)c1 [Example 38, 4-(2-Hydroxyethoxy)-3-(pyrimidin-5-yl)-N-(4-(trifluoromethoxy)phenyl)benzamide]
< 3 nM | CC(C)CN1CCN(CCOc2ccc(C(=O)Nc3ccc(OC(F)(F)F)cc3)cc2-c2cncnc2)CC1 [Example 39, 4-(2-(4-Isobutylpiperazin-1-yl)ethoxy)-3-(pyrimidin-5-yl)-N-(4-(trifluoromethoxy)phenyl)benzamide]
13 nM | O=C(Nc1ccc(OC(F)(F)F)cc1)c1ccc(O)c(-c2cncnc2)c1 [Example 41, 4-Hydroxy-3-(pyrimidin-5-yl)-N-(4-(trifluoromethoxy)phenyl)benzamide]
4.2 nM | O=C(Nc1ccc(OC(F)(F)F)cc1)c1cnc(OCCNCCO)c(-c2cncnc2)c1 [Example 50, 6-(2-((2-Hydroxyethyl)amino)ethoxy)-5-(pyrimidin-5-yl)-N-(4-(trifluoromethoxy)phenyl)nicotinamide]
36 nM | O=C(Nc1ccc(OC(F)(F)F)cc1)c1cccc(-c2cncnc2)c1F [Example 60, 2-Fluoro-3-(pyrimidin-5-yl)-N-(4-(trifluoromethoxy)phenyl)benzamide]
69 nM | COc1ncccc1-c1cncc(C(=O)Nc2ccc(OC(F)(F)F)cc2)c1 [Example 62, 2′-Methoxy-N-(4-(trifluoromethoxy)phenyl)-[3,3′-bipyridine]-5-carboxamide]
77 nM | O=C(Nc1ccc(OC(F)(F)F)cc1)c1cncc(-c2cccnc2O)c1 [Example 63, 2′-Hydroxy-N-(4-(trifluoromethoxy)phenyl)-[3,3′-bipyridine]-5-carboxamide]
< 3 nM | COc1ncc(-c2cc(C(=O)Nc3ccc(OC(F)(F)F)cc3)ccn2)cn1 [Example 69, 2-(2-Methoxypyrimidin-5-yl)-N-(4-(trifluoromethoxy)phenyl)isonicotinamide]
13 nM | O=C(Nc1ccc(OC(F)(F)F)cc1)c1ccnc(-c2cncnc2)c1 [Example 70, 2-(Pyrimidin-5-yl)-N-(4-(trifluoromethoxy)phenyl)isonicotinamide]
660 nM | O=C(Nc1ccc(OC(F)(F)F)cc1)c1cncc(-c2cncnc2)n1 [Example 71, 6-(pyrimidin-5-yl)-N-(4-(trifluoromethoxy)phenyl)pyrazine-2-carboxamide]
650 nM | O=C(Nc1ccc(OC(F)(F)F)cc1)c1cc(-c2cncnc2)ccn1 [Example 72, 4-(pyrimidin-5-yl)-N-(4-(trifluoromethoxy)phenyl)picolinamide]

The compounds below were run on Ba/F3-BCR-ABL1-WT cells (assay: Ba/F3-BCR-ABL1-WT cellular proliferation assay). Details: Mus musculus, 48 h, read-out: Ba/F3-BCR-ABL1-WT IC50.
Assay type: cell-based, murine

Compound | IC50
O=C(Nc1ccc(OC(F)(F)F)cc1)c1cncc(-c2cncnc2)c1 [Example 42, 5-(Pyrimidin-5-yl)-N-(4-(trifluoromethoxy)phenyl)nicotinamide] | 29 nM

Same assay, conditions: Mus musculus; 48 hours; read-out: Ba/F3-BCR-ABL1-WT IC50

Compound | IC50
O=C(Nc1ccc(CC(F)(F)F)cc1)c1cccc(-c2cncnc2)c1 [Example 12, 3-(Pyrimidin-5-yl)-N-(4-(2,2,2-trifluoroethyl)phenyl)benzamide] | 148 nM

From patent US9315489B2, “Compounds and compositions for inhibiting the activity of ABL1, ABL2 and BCR-ABL1” (Novartis AG, priority 2012, dated 2016)
